Results on 15 compounds are retold here after patent publication US8686143B2, “Compounds useful as inhibitors of Janus kinases” (Vertex Pharmaceuticals Incorporated, priority 2007, dated 2014).

The first experiment concerns the target T1, JAK3 (Homo sapiens, UniProt P52333).
T1 sequence (P52333 1-1124): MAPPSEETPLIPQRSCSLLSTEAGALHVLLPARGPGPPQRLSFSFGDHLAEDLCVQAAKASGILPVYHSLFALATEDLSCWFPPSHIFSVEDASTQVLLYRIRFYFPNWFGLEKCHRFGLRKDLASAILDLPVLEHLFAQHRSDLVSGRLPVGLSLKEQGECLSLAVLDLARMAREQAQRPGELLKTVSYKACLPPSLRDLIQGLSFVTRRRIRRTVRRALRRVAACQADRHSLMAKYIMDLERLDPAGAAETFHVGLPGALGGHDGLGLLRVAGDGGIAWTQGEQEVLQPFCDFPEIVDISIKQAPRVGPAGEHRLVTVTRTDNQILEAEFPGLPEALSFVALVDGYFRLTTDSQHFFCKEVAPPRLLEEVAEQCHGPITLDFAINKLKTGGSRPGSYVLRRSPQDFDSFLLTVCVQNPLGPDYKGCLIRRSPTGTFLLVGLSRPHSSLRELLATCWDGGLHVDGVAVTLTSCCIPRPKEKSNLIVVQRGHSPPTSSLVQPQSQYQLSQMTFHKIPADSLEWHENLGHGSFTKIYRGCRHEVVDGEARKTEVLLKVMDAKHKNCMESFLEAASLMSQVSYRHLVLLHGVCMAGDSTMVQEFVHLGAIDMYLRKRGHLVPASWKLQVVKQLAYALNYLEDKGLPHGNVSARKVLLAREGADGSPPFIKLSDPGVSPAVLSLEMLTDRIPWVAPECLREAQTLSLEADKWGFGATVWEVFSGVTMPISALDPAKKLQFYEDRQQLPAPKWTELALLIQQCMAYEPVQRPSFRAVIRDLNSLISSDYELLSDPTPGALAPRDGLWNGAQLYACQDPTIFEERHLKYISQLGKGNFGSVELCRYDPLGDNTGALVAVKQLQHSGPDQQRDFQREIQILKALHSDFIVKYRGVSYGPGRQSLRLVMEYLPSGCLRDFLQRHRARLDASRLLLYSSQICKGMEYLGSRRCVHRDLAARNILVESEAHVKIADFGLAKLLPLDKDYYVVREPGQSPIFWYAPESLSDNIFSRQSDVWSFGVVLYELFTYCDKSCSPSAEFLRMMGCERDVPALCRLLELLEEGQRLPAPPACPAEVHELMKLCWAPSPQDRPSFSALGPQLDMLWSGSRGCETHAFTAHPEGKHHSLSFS
Put plainly: JAK3 Inhibition Assay (33P incorporation into poly(Glu)4Tyr). Format: biochemical. Conditions: 1 nM JAK3, 5 μM ATP, 1 μM poly(Glu)4Tyr, 25° C. Summed up:
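Run at 25°C for 20 min with 1 nM enzyme in pH 7.4 HEPES buffer with MgCl2, DTT, NaCl and BSA. Final substrates were 5 μM ATP (33P-labelled) and 1 μM poly(Glu)4Tyr. Stopped with TCA, filtered, and 33P incorporation counted by scintillation.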
A word on the Ki: it is a dissociation constant, usually derived from enzyme kinetics or from competition with a known ligand. A lower Ki goes with tighter binding. The compound `O=C(NCC(F)(F)F)[C@H]1CCCN1c1nc(-c2c[nH]c(C(=O)N3CCCC3)c2)ncc1F` [Compound 119] gave a Ki of 1 to 10 µM.

In turn, `O=C(NCC(F)(F)F)[C@H]1CCCN1c1ccnc(-c2c[nH]c(C(=O)N3CC=CC3)c2)n1` [Compound 139] yielded a Ki of no more than 1 µM.

The compound `CC(C)(Nc1nc(-c2ccc3nc(N)sc3c2)ncc1F)C(=O)NCC(F)(F)F` [Compound 66] yielded a Ki of 1 to 10 µM.

The compound `Nc1nc(Nc2ccc(F)cc2)nn1-c1ncc(F)c(N2CCC[C@@H]2C(=O)NCC(F)(F)F)n1` [Compound 44] displayed a Ki of 1 to 10 µM.

As for `O=C(CNc1nc(-c2cccnc2F)ncc1F)NCC(F)(F)F` [Compound 8], the Ki is 10 to 50 µM.

In turn, `O=C(NCC(F)(F)F)[C@H]1CCCN1c1nc(-c2ccc3ncccc3c2)ncc1F` [Compound 89] displayed a Ki of 10 to 50 µM.

Compound `O=C(CNc1nc(-c2cccnc2)ncc1F)NCC(F)(F)F` [Compound 11] came in with a Ki of 1 to 10 µM.

With `CC(C)(Nc1nc(-c2c[nH]c(C(=O)O)c2)ncc1F)C(=O)NCC(F)(F)F` [Compound 133], the Ki is 1 to 10 µM.

As to `CC(C)[C@@H](Nc1ccnc(-c2ccc3ncsc3c2)n1)C(=O)NCC(F)(F)F` [Compound 148], the Ki is no more than 1 µM.

Turning to `CC(C)[C@@H](Nc1ccnc(-c2c[nH]c(C(=O)N3CC=CC3)c2)n1)C(=O)NCC(F)(F)F` [Compound 114], the Ki was no more than 1 µM.

The experiment is the same for the next values; noted with them: at concentrations of 50 μM.
Consider `O=C(NCC(F)(F)F)[C@@H]1CCCN1c1nc(-c2cccnc2F)ncc1F` [Compound 24], for which the “inhibition of JAK3 at concentrations of 50 μM” value (from here on “inhibition of JAK3”) was “did not inhibit”.

On to `COc1ccc(-c2nccc(N[C@@H](C(=O)NCC(F)(F)F)C(C)C)n2)cn1` [Compound 70], for which the “inhibition of JAK3” value was “did not inhibit”.

Turning to `CC(C)NC(=O)c1cc(-c2nccc(N3CCC[C@@H]3C(=O)NCC(F)(F)F)n2)c[nH]1` [Compound 122], the “inhibition of JAK3” value is “did not inhibit”.

With `Nc1nc2ccc(-c3ncc(F)c(N4CCC[C@@H]4C(=O)NCC(F)(F)F)n3)cc2s1` [Compound 90], the “inhibition of JAK3” value is on record as “did not inhibit”.

With `C[C@H](Nc1nc(-c2ccc(F)nc2)ncc1F)C(=O)NCC(F)(F)F` [Compound 1], the “inhibition of JAK3” value was “did not inhibit”.
